Where a name gives a salt, the structure may show the parent alone.
Tests used:
Escherichia coli = experiment: minimum inhibitory concentration, antibacterial spectrum (Table I); assay type: cell-based; settings: 32 P.P.M.
Procedure: (§1) The compounds listed in Table I below were tested for their antibacterial spectrum by the method of:
(§2) Silverblatt, F. and M. Turck, 1969. Antimicrobial Agents and Chemothreapy; 1968, p. 279-285.
(§3) Wallace, J. F., E. Atlas, D. M. Bear, N. K. Brown, H. Clark and M. Turk, 1971. Antimicrobial Agents and Chemotherapy; 1970, p. 223-266.

Candida albicans = experiment: minimum inhibitory concentration, antimicrobial spectrum (Table I); assay type: cell-based; settings: 32 P.P.M.
Procedure: as §1, §2, §3

Staphylococcus aureus = experiment: minimum inhibitory concentration, antibacterial spectrum (Table I); assay type: cell-based; settings: 32 P.P.M.
Procedure: as §1, §2, §3

Pseudomonas aeruginosa = experiment: as above; assay type: cell-based; settings: 32 P.P.M.
Procedure: as §1, §2, §3

[1] = LD50 upon oral administration to mice; settings: mouse, in vivo
Streptococcus pyogenes = experiment: minimum inhibitory concentration / in vitro spectrum of activity; assay type: cell-based; settings: footnote of Table I
Procedure: as §1, §2, §3

Klebsiella pneumonia = experiment: as above; assay type: cell-based; settings: Klebsiella pneumoniae, footnote of Table I
Procedure: as §1, §2, §3

Salmonella typhosa = experiment: as above; assay type: cell-based; settings: Salmonella enterica, read-out: minimum inhibitory concentration (MIC)
Procedure: as §1, §2, §3

Diplococcus pneumoniae = experiment: as above; assay type: cell-based; settings: Streptococcus pneumoniae, footnote of Table I
Procedure: as §1, §2, §3

SMILES | MIC (Escherichia coli) [µg/mL] | MIC (Staphylococcus aureus) [µg/mL] | MIC (Pseudomonas aeruginosa) [µg/mL] | also measured
N=C(NCCCCCCNC(=N)Nc1nc2cc(Cl)c(S(N)(=O)=O)cc2[nH]1)Nc1nc2cc(Cl)c(S(N)(=O)=O)cc2[nH]1 [Compound 1045, N'-N"-bis-[2-(5'-chloro-6'-sulfamylbenzimidazole)]-2,9-diazadecane diimidamide dihydrochloride] | 8 |  |  | 
N=C(NCCCCCCCNC(=N)Nc1nc2ccccc2[nH]1)Nc1nc2ccccc2[nH]1 [Compound 1046, N'-N"-bis-[2-benzimidazole]-2,10-diazaundecane diimidamide dihydrochloride] | 8 | 8 |  | MIC (Candida albicans): 16 µg/mL
N=C(NCCCCCNC(=N)Nc1nc2ccccc2[nH]1)Nc1nc2ccccc2[nH]1 [Compound 1079, N'-N"-bis-[2-benzimidazole]-2,8-diazanonane diimidamide dihydrochloride dihydrate] | 8 | 8 |  | 
N=C(NCCCCCCNC(=N)Nc1nc2ccccc2[nH]1)Nc1nc2ccccc2[nH]1 [Compound 1024, N'-N"-bis-[2-benzimidazole]-2,9-diazadecane diimidamide dihydrochloride] | 4 | 4 | 16 | LD50 [1]: 4000 mg/kg; MIC (Streptococcus pyogenes): 1 µg/mL; MIC (Klebsiella pneumonia): 500 µg/mL; MIC (Salmonella typhosa): 4 µg/mL; MIC (Diplococcus pneumoniae): 2 µg/mL
Cc1ccc2nc(NC(=N)NCCCCCCNC(=N)Nc3nc4ccc(C)cc4[nH]3)[nH]c2c1 [Compound 1081, N'-N"-bis-[2-(6-methyl-benzimidazole)]-2,9-diazadecane diimidamide dihydrochloride dihydrate] | 1 | 1 | 8 | MIC (Candida albicans): 8 µg/mL
N=C(NCCCCCCCCNC(=N)Nc1nc2ccccc2[nH]1)Nc1nc2ccccc2[nH]1 [Compound 1080, N'-N"-bis-[2-benzimidazole]-2,11-diazadodecane diimidamide dihydrochloride dihydrate] | 1 | 1 |  | 

The next lines start with results.

MIC (Escherichia coli) [µg/mL] | MIC (Staphylococcus aureus) [µg/mL] | MIC (Pseudomonas aeruginosa) [µg/mL] | SMILES | also measured
32 |  |  | N=C(NCCNC(=N)Nc1nc2ccccc2[nH]1)Nc1nc2ccccc2[nH]1 [Compound 1069, N'-N"-bis[2-benzimidazole]-2,5-diazahexane diimidamide dihydrochloride] | 
4 | 16 | 16 | Cc1ccc2nc(NC(=N)NCCNC(=N)Nc3nc4ccc(C)cc4[nH]3)[nH]c2c1 [Compound 1072, N'-N"-bis-[2-(6-methylbenzimidazole)]-2,5-diazahexane diimidamide dihydrochloride monohydrate] | 
 | 5 |  | N=C(NCCNC(=N)Nc1nc2ccc(Cl)cc2[nH]1)Nc1nc2ccc(Cl)cc2[nH]1 [Compound 1105, N'-N"-bis-[2-(6-chlorobenzimidazole)]-2,5-diazahexanediimidamide dihydrochloride sesquihydrate] | 
2 | 2 |  | N=C(NCCCCCNC(=N)Nc1nc2ccc(Cl)cc2[nH]1)Nc1nc2ccc(Cl)cc2[nH]1 [Compound 1075, N'-N"-bis-[2-(6-chlorobenzimidazole)]-2,8,diazanonane diimidamide dihydrochloride hydrate] | 
4 | 8 | 8 | Cc1ccc2nc(NC(=N)NCCCCCNC(=N)Nc3nc4ccc(C)cc4[nH]3)[nH]c2c1 [Compound 1074, N'-N"-bis-[2-(6-methylbenzimidazole)]-2,8-diazanonane diimidamide dihydrochloride hemipentahydrate] | MIC (Candida albicans): 16 µg/mL

— patent US4395552A, “Antimicrobial bis-imidazolo-pyridine compound” (The Purdue Frederick Company, priority 1980, dated 1983)
